This is an account of results in patent US8664225B2, “1-[2-(2,4-dimethylphenylsulfanyl)-phenyl] piperazine as a compound with combined serotonin reuptake, 5-HT3 and 5-HT1A activity for the treatment of pain or residual symptoms in depression relating to sleep and cognition” (H. Lundbeck A/S, priority 2007, dated 2014).

Read-outs that look alike come from different tables or passages of the source.

A short description of one data set: physchem. Conditions: water.
Data set [1] concerns extra-cellular levels of ACh. Put plainly: Extracellular acetylcholine levels in brain of freely moving rats (microdialysis). Conditions: 2.5-10 mg/kg s.c. Format: in vivo, rat. The procedure: The animals were administered 1-[2-(2,4-dimethylphenylsulfanyl)phenyl]piparazine, HBr salt.
Male Sprague-Dawley rats, initially weighing 275-300 g, were used. The animals were housed under a 12-hr light/dark cycle under controlled conditions for regular in-door temperature (21±2° C.) and humidity (55±5%) with food and tap water available ad libitum.
Rats were anaesthetised with hypnorm/dormicum (2 ml/kg) and intracerebral guide cannulas (CMA/12) were stereotaxically implanted into the brain, aiming at positioning the dialysis probe tip in the ventral hippocampus (co-ordinates: 5.6 mm posterior to bregma, lateral −5.0 mm, 7.0 mm ventral to dura) or in the prefrontal cortex (co-ordinates: 3.2 mm anterior to bregma; lateral, 0.8 mm; 4.0 mm ventral to dura). […] The body temperature of the animals was monitored by rectal probe and maintained at 37° C. […]
The compound dissolved in 10% HPbetaCD and injected subcutaneously (2.5-10 mg/kg). Doses are expressed as mg salt/kg body weight. […]
Concentration of acetylcholine (ACh) in the dialysates was analysed by means of HPLC with electrochemical detection using a mobile phase consisting of 100 mM disodium hydrogenphosphate, 2.0 mM octane sulfonic acid, 0.5 mM tetramethyl-ammonium chloride and 0.005% MB (ESA), pH 8.0. […] The latter was detected electrochemical by using a platinum electrode (Analytical cell: ESA, model 5040). […]

In a further data set the test system is rat. Kind of data set: Chronic constriction nerve injury model. The format is in vivo. The note with it: 7.9 mg/kg s.c., 60 minutes, FIG. 26. The procedure: This model of neuropathic pain involves the application of four loose ligations around one sciatic nerve of the rat over a period of time to develop both hyperalgesia and allodynia. The effect of test compounds in this test is measured as the time to withdraw the paw upon a thermal stimuli.

A further data set relates to Sprague-Dawley rats. Kind of data set: Contextual fear conditioning in rats. The format is in vivo, rat. Conditions: 1, 5 and 10 mg/kg s.c. 1 h prior to acquisition, any dose tested. An excerpt: The compound administered in the present experiment was 1-[2-(2,4-dimethylphenylsulfanyl)phenyl]piperazine HBr salt.
We have studied the effect of the compound on acquisition, consolidation and recall of contextual fear conditioning in rats. In the fear conditioning paradigm animals learn to associate a neutral environment (context, the training chamber, CS) with an aversive experience (an electrical foot-shock, US). During re-exposure to the training chamber, animals express a freezing behaviour, which is taken as a direct measure of the fear-related memory [Pavlov J. Biol. Sci., 15, 177-182, 1980]. […] Neurosci., 106, 274-285, 1992].
Adult male Sprague-Dawley rats (weighing 250-300 g at time of training) from Charles River Laboratories, housed two per cage under a 12 h light/dark cycle, were used. Food and water were available ad libitum. […]
During the acquisition animals were allowed to freely explore the novel environment for a 1 min habituation period, which co-terminated with one inescapable foot-shock (unconditioned stimulus, US) through the electrifiable grid floor. […] Freezing behaviour was scored during the first 58 s (pre-shock acquisition; experimenter blinded to groups) to determine baseline-freezing responses to the context. […] Freezing behaviour was scored during the whole test period with the experimenter blinded to groups and presented as percent of total test period.

The nature of data set [2]: Hygroscopicity (water absorption at relative humidity). Format: physicochemical. An excerpt:
Some compounds are hygroscopic, i.e. the absorb water when exposed to humidity. Hygroscopicity is generally regarded as an undesired property for compounds that are to be presented in a pharmaceutical formulation, in particular in a dry formulation, such as tablets. In one embodiment, the invention provides the use of crystals with low hygroscopicity. For oral dosage forms using crystalline active ingredients it is also beneficial if said crystals are well-defined. In the present context, the term “well-defined” in particular means that the stoichiometry is well-defined, i.e. that the ratio between the ions forming the salt is the ratio between small integers, such as 1:1, 1:2, 2:1, 1:1:1, etc. In one embodiment, the compound I forms well-defined crystals.

The solubility is the dissolved amount per volume that the medium holds. Higher therefore signals much dissolved substance. Take `Cc1ccc(Sc2ccccc2N2CCNCC2)c(C)c1.O=C(O)C(O)C(O)C(=O)O` [L-(+)-tartrate, 1-[2-(2,4-Dimethylphenylsulfanyl)-phenyl]piperazine (+)-tartaric acid]: the solubility in the data set “physchem” is roughly 400 µg/mL.
Molecule `Br.Cc1ccc(Sc2ccccc2N2CCNCC2)c(C)c1` [alpha form of the hydrobromide, 1-[2-(2,4-Dimethylphenylsulfanyl)-phenyl]piperazine hydrobromide] displayed a solubility in the data set “physchem” of 2000 µg/mL.
In the case of `Br.Cc1ccc(Sc2ccccc2N2CCNCC2)c(C)c1` [compound I (HBr salt), 1-[2-(2,4-dimethylphenylsulfanyl)phenyl]piperazine HBr salt], the “extra-cellular levels of ACh in prefrontal cortex” value in data set [1] (FIG. 19a) is reported as “significantly increased”. Further, in data set [1] (FIG. 19b), the “extra-cellular levels of ACh in ventral hippocampus” value is on record as “significantly increased”. Besides, the “withdrawal latency following a thermal stimuli” value in the data set with rat was “significant and dose-dependant withdrawal latency”. Moreover, the “baseline freezing behaviour before the foot shock” value in the data set on Sprague-Dawley rats is “does not affect”.
In the case of `Cc1ccc(Sc2ccccc2N2CCNCC2)c(C)c1` [crystalline base, 1-[2-(2,4-Dimethylphenylsulfanyl)-phenyl]piperazine], the “hygroscopicity (in words)” value in data set [2] is “not hygroscopic”.
`Cc1ccc(Sc2ccccc2N2CCNCC2)c(C)c1` [fumarate, 1-[2-(2,4-Dimethylphenylsulfanyl)-phenyl]piperazine] returned a solubility in water in the data set “Solubility in water” of 400 µg/mL.
Regarding `Br.Cc1ccc(Sc2ccccc2N2CCNCC2)c(C)c1` [gamma form of the hydrobromide, 1-[2-(2,4-Dimethylphenylsulfanyl)-phenyl]piperazine hydrobromide], the “water absorbed at 30% RH” value in data set [2] (30% RH at room temperature) is listed as “about 2%”.
On to `Br.Cc1ccc(Sc2ccccc2N2CCNCC2)c(C)c1` [hemi hydrate of the hydrobromide, 1-[2-(2,4-Dimethylphenylsulfanyl)-phenyl]piperazine hydrobromide], for which the water content entry in data set [2] (room temperature and 95% RH) was “about 3.7%”.
Consider `Cc1ccc(Sc2ccccc2N2CCNCC2)c(C)c1.Cl` [hydrochloride monohydrate, 1-[2-(2,4-Dimethylphenylsulfanyl)-phenyl]piperazine HCl], for which the “hygroscopicity (in words)” value in data set [2] was “does not absorb further amount of water”. Also, the solubility in water entry in “Solubility in water” (HCl) is reported as “about 2 mg/ml”.
`Cc1ccc(Sc2ccccc2N2CCNCC2)c(C)c1.Cl` [hydrochloride, 1-[2-(2,4-Dimethylphenylsulfanyl)-phenyl]piperazine hydrochloride] had a solubility in “physchem” of 3000 µg/mL.
Molecule `Cc1ccc(Sc2ccccc2N2CCNCC2)c(C)c1.O=C(O)/C=C\C(=O)O` [maleate, 1-[2-(2,4-Dimethylphenylsulfanyl)-phenyl]piperazine Maleate] returned a solubility in the data set “physchem” of roughly 1000 µg/mL.
The same measure, in the same setting: for `CS(=O)(=O)O.Cc1ccc(Sc2ccccc2N2CCNCC2)c(C)c1` [mesylate, 1-[2-(2,4-Dimethylphenylsulfanyl)-phenyl]piperazine mesylate] the value was greater than 45000 µg/mL; for `Cc1ccc(Sc2ccccc2N2CCNCC2)c(C)c1.O=[N+]([O-])O` [nitrate, 1-[2-(2,4-Dimethylphenylsulfanyl)-phenyl]piperazine nitrate], roughly 800 µg/mL.
Turning to `Cc1ccc(Sc2ccccc2N2CCNCC2)c(C)c1.O=P(O)(O)O` [phosphate, 1-[2-(2,4-Dimethylphenylsulfanyl)-phenyl]piperazine phosphate], in “physchem”, the solubility is roughly 1000 µg/mL.
As for `Cc1ccc(Sc2ccccc2N2CCNCC2)c(C)c1.O=S(=O)(O)O` [sulphate, 1-[2-(2,4-Dimethylphenylsulfanyl)-phenyl]piperazine sulphate], in the data set “physchem”, the solubility was roughly 100 µg/mL.
